Source: patent US8575360B2, “Derivatives of 6,7-dihydro-5H-imidazo[1,2-a]imidazole-3-carboxylic acid amides” (Boehringer Ingelheim International GmbH, priority 2009, dated 2013)

target: T1, LFA-1 (CD18/CD11a) binding to ICAM-1 (Homo sapiens, UniProt P05107+P20701); assay: LFA-1/Biotin-sICAM-1 AlphaScreen assay: inhibition of LFA-1 binding to ICAM-1; settings: 37° C. 90 minutes, highest compound concentration 1 μM
T1 construct: followed by purified LFA-1 (in buffer of 50 mM triethylamine, 150 mM NaCl, 1% beta octylglucoside)
T1 sequence (P20701 26-1170): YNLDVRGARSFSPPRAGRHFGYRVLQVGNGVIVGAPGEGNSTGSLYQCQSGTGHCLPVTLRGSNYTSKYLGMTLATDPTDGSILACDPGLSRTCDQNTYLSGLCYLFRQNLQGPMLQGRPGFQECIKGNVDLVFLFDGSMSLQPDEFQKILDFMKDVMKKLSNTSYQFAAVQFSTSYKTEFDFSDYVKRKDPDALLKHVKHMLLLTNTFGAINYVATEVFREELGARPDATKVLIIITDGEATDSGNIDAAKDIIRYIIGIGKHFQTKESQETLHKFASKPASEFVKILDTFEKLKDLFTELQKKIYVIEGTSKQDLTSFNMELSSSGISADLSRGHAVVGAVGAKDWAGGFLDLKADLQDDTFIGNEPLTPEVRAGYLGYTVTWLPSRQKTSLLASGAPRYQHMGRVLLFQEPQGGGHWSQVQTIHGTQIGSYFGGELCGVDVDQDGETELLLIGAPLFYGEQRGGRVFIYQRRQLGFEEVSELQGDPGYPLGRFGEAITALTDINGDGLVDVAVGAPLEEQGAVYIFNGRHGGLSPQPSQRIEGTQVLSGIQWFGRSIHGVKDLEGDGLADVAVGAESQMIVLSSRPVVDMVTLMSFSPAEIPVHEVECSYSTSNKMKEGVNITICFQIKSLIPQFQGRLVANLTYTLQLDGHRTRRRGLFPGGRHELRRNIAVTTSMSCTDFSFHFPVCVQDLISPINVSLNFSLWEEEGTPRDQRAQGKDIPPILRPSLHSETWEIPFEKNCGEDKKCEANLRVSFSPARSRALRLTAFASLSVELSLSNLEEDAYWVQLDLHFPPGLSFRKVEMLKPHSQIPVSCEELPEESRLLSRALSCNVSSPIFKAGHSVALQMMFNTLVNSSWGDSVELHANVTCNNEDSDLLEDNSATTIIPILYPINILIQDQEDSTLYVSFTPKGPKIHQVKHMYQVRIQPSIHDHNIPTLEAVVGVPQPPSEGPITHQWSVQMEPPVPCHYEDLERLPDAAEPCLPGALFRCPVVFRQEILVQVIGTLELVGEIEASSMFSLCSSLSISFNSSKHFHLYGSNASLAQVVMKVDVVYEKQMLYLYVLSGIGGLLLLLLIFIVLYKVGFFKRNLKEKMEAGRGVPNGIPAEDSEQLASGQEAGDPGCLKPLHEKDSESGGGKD
T1 sequence (P05107 23-769 partner): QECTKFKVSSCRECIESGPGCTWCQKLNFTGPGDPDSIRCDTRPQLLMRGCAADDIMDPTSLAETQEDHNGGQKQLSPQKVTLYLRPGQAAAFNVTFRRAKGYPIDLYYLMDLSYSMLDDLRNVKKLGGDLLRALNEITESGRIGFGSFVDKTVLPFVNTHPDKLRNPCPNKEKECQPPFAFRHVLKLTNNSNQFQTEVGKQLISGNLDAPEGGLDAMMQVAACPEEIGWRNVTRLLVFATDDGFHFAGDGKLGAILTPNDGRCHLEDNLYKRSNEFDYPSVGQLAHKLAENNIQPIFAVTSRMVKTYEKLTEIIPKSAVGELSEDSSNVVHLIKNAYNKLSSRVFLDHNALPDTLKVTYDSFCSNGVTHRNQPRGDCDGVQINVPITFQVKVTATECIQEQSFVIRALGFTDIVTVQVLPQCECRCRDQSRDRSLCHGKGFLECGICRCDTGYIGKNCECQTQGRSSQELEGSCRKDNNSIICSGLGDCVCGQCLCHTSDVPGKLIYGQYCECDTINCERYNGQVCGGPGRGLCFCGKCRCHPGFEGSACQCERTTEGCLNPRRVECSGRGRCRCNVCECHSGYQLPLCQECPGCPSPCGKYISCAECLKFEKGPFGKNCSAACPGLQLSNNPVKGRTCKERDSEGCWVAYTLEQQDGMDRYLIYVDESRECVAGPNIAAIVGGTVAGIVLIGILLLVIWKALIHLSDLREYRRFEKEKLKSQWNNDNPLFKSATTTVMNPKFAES
Excerpt: Assay to Determine Inhibition of LFA-1 Binding to ICAM-1
This assay protocol is designed to study the direct antagonism, by a test compound, of the interaction of ICAM-1 with the Leukointegrin CD18/CD11a (LFA-1).
The LFA-1/Biotin-sICAM-1 molecular assay measures the ability of test compounds to inhibit binding of LFA-1 to Biotinylated-sICAM using AlphaScreen technology (Ref: Wilson, J, Rossi, C P, Carboni, S, Fremaux, C, Perrin, D, Soto, C, Kosco-Vilbois, M, and Scheer, A: A Homogeneous 384-Well High-Throughput Binding Assay for a TNF Receptor Using Alphascreen Technology. J Biomol Screen 2003; 8:522-532) that uses TS2/4(anti-LFA-1)-custom conjugated AlphaLisa acceptor beads and streptavidin-coated donor beads from PerkinElmer. The assay was performed in white OptiPlates-384 in a volume of 60 μL using assay buffer (Dulbecco's PBS containing calcium and magnesium, 2 mM MgCl2, 0.1 mM PMSF, 0.1% BSA, pH 7.1). To each well, Biotin-sICAM was added followed by purified LFA-1 (in buffer of 50 mM triethylamine, 150 mM NaCl, 1% beta octylglucoside, 2 mM MgCl2 neutralized to pH with 1M Tris-HCl, pH 7.5). For compound testing, compound was added in 5 uL to the above in 25 uL. LFA-1 and Biotin-sICAM-1 were used at concentrations that would yield a signal to background ratio of 8-10. The highest concentration of compound was 1 μM in 1% DMSO. Positive controls were wells without compound containing LFA-1, while blanks were wells without both compound and LFA-1. Plates were mixed and incubated at 37° C. for 90 minutes. This was followed by addition of 15 μL/well TS2/4-conjugated acceptor beads diluted in PBS containing 0.1% BSA for a final concentration of 10 μg/mL. The plates were mixed and incubated in the dark for 30 minutes at room temperature followed by addition of 15 μL/well streptavidin-coated donor beads diluted in PBS containing 0.1% BSA at a final concentration of 15 μg/mL. The plates were mixed and incubated in the dark for 60 minutes at room temperature and then read on an EnVision Multilabel Reader using AlphaScreen 384-well OptiPlate protocol.

`Cc1ccc(-c2ccc(C3(NC(=O)C4(NC(=O)c5cnc6n5[C@](C)(Cc5ccc(C#N)cc5)C(=O)N6c5cc(Cl)c(F)c(Cl)c5)CC4)CC3)nc2)cn1` [Compound 18] and `Cc1nn(C)cc1-c1ccc(C2(NC(=O)C3(NC(=O)c4cnc5n4[C@](C)(Cc4ccc(C#N)cc4)C(=O)N5c4cc(Cl)c(F)c(Cl)c4)CC3)CC2)nc1` [Compound 123] are the same in IC50: 1.4 nM for the first, 1.4 nM for the second.

`CN(C)C(=O)c1cccc(-c2ccc(C3(NC(=O)C4(NC(=O)c5cnc6n5[C@](C)(Cc5ccc(C#N)cc5)C(=O)N6c5cc(Cl)cc(Cl)c5)CC4)CC3)nc2)c1` [Compound 56] and `C[C@@]1(Cc2ccc(C#N)cc2)C(=O)N(c2cc(Cl)cc(Cl)c2)c2ncc(C(=O)NC3(C(=O)NC4(c5ccc(-c6cccc(S(N)(=O)=O)c6)cn5)CC4)CC3)n21` [Compound 138] are within 1.5-fold of each other in IC50: 0.67 nM for the first, 0.64 nM for the second.

Going from `C[C@@]1(Cc2ccc(C#N)cc2)C(=O)N(c2cc(Cl)cc(Cl)c2)c2ncc(C(=O)NC3(C(=O)NC4(c5ccc(-c6ccc(NS(C)(=O)=O)cc6)cn5)CC4)CC3)n21` [Compound 133] to `C[C@@]1(Cc2ccc(C#N)cc2)C(=O)N(c2cc(Cl)cc(Cl)c2)c2ncc(C(=O)NC3(C(=O)NC4(c5ccc(-c6ccc(S(C)(=O)=O)cc6)cn5)CC4)CC3)n21` [Compound 134], the IC50 falls from 1.5 nM to 0.64 nM (2.3-fold).

`C[C@@]1(Cc2ccc(C#N)cc2)C(=O)N(c2cc(Cl)cc(Cl)c2)c2ncc(C(=O)NC3(C(=O)NC4(c5ccc(-c6ccc(O)cc6)cn5)CC4)CC3)n21` [Compound 135] and `C[C@@]1(Cc2ccc(C#N)cc2)C(=O)N(c2cc(Cl)cc(Cl)c2)c2ncc(C(=O)NC3(C(=O)NC4(c5ccc(-c6ccc(S(N)(=O)=O)cc6)cn5)CC4)CC3)n21` [Compound 132] are within 1.5-fold of each other in IC50: 0.64 nM for the first, 0.72 nM for the second.

Compared with `Cn1cc(-c2ccc(C3(NC(=O)C4(NC(=O)c5cnc6n5[C@](C)(Cc5ccc(C#N)cc5)C(=O)N6c5cc(Cl)c(F)c(Cl)c5)CC4)CC3)nc2)c(C2CC2)n1` [Compound 14], `Cn1ncc(-c2ccc(C3(NC(=O)C4(NC(=O)c5cnc6n5[C@](C)(Cc5ccc(C#N)cc5)C(=O)N6c5cc(Cl)c(F)c(Cl)c5)CC4)CC3)nc2)c1C1CC1` [Compound 13] is 1.6-fold higher in IC50: 1.1 nM for the first, 1.8 nM for the second.

Going from `C[C@@]1(Cc2ccc(C#N)cc2)C(=O)N(c2cc(Cl)c(F)c(Cl)c2)c2ncc(C(=O)NC3(C(=O)NC4(c5ccc(-c6cccc(S(N)(=O)=O)c6)cn5)CC4)CC3)n21` [Compound 115] to `C[C@@]1(Cc2ccc(C#N)cc2)C(=O)N(c2cc(Cl)cc(Cl)c2)c2ncc(C(=O)NC3(C(=O)NC4(c5ccc(-c6cn[nH]c6)cn5)CC4)CC3)n21` [Compound 129], the IC50 falls from 1.8 nM to 0.22 nM (8.2-fold).

Going from `C[C@@]1(Cc2ccc(OC(F)(F)F)cc2)C(=O)N(c2cc(Cl)c(F)c(Cl)c2)c2ncc(C(=O)NC3(C(=O)NC4(c5ccc(-c6cn[nH]c6)nn5)CC4)CC3)n21` [Compound 42] to `C[C@@]1(Cc2ccc(C#N)cc2)C(=O)N(c2cc(Cl)c(F)c(Cl)c2)c2ncc(C(=O)NC3(C(=O)NC4(c5ncc(-c6cn[nH]c6)cn5)CC4)CC3)n21` [Compound 33], the IC50 falls from 1.3 nM to 0.57 nM (2.3-fold).

First: CC(O)C(NC(=O)c1cnc2n1C(C)(Cc1ccc(C#N)cc1)C(=O)N2c1cc(Cl)c(F)c(Cl)c1)C(=O)NC1(c2ccc(-c3cnn(C)c3)nc2)CC1 (stereo not shown) [Compound 152]
Second: C[C@H](NC(=O)c1cnc2n1[C@](C)(Cc1ccc(C#N)cc1)C(=O)N2c1cc(Cl)c(F)c(Cl)c1)C(=O)NC1(c2ccc(-c3ccc(CO)nc3)nc2)CC1 [Compound 90]
The IC50 of the first is 3.9-fold higher: 1.1 nM for the first, 0.28 nM for the second. The second is the more potent here.

`C[C@@H](NC(=O)C1(NC(=O)c2cnc3n2[C@](C)(Cc2ccc(OC(F)(F)F)cc2)C(=O)N3c2cc(Cl)c(F)c(Cl)c2)CC1)c1ccc(-c2ccc(CO)nc2)cn1` [Compound 116] and `C[C@H](NC(=O)c1cnc2n1[C@](C)(Cc1ccc(C#N)cc1)C(=O)N2c1cc(Cl)c(F)c(Cl)c1)C(=O)NC1(c2ncc(-c3ccc(CO)nc3)cn2)CC1` [Compound 78] are within 1.5-fold of each other in IC50: 1.3 nM for the first, 1.2 nM for the second.

`Cc1nn(C)cc1-c1cnc(C2(NC(=O)C3(NC(=O)c4cnc5n4[C@](C)(Cc4ccc(C#N)cc4)C(=O)N5c4cc(Cl)c(F)c(Cl)c4)CC3)CC2)nc1` [Compound 111] gave an IC50 of 1.6 nM.
